What was measured:
Assay type in all cases: in vivo
[1] = tested on: ragweed (common ragweed, Ambrosia elatior); assay: Test A postemergence application; conditions: approx. 10 days
Source text: (§1) Seeds of plant species selected from barnyardgrass (Echinochloa crus-galli), kochia (Kochia scoparia), ragweed (common ragweed, Ambrosia elatior), Italian ryegrass (Lolium multiflorum), giant foxtail (Setaria faberii), and pigweed (Amaranthus retroflexus) were planted into a blend of loam soil and sand and treated preemergence with a directed soil spray using test chemicals formulated in a non-phytotoxic solvent mixture which included a surfactant. At the same time, plants selected from these weed species and also wheat (Triticum aestivum), corn (Zea mays), blackgrass (Alopecurus myosuroides), and galium (catchweed bedstraw, Galium aparine) were planted in pots containing the same blend of loam soil and sand and treated with postemergence applications of test chemicals formulated in the same manner. Plants ranged in height from 2 to 10 cm and were in the one- to two-leaf stage for the postemergence treatment. Treated plants and untreated controls were maintained in a greenhouse for approximately 10 days, after which time all treated plants were compared to untreated controls and visually evaluated for injury. Plant response ratings, summarized in Table A, are based on a 0 to 100 scale where 0 is no effect and 100 is complete control. A dash (-) response means no test result.

[2] = tested on: wheat (Triticum aestivum); assay: Test A postemergence application; conditions: approx. 10 days
Source text: as §1

[3] = tested on: Italian ryegrass (Lolium multiflorum); assay: Test C preemergence; conditions: scale 0 to 100, 0 is no effect, 100 is complete control
Source text: (§2) Seeds of plant species selected from blackgrass (Alopecurus myosuroides), Italian ryegrass (Lolium multiflorum), winter wheat (Triticum aestivum), galium (catchweed bedstraw, Galium aparine), corn (Zea mays), large (Lg) crabgrass (Digitaria sanguinalis), giant foxtail (Setaria faberii), johnsongrass (Sorghum halepense), lambsquarters (Chenopodium album), morningglory (Ipomoea coccinea), yellow nutsedge (Cyperus esculentus), pigweed (Amaranthus retroflexus), ragweed (common ragweed, Ambrosia elatior), soybean (Glycine max), barnyardgrass (Echinochloa crus-galli), oilseed rape (Brassica napus), waterhemp (common waterhemp, Amaranthus rudis), and velvetleaf (Abutilon theophrasti) were planted into a blend of loam soil and sand and treated preemergence with test chemicals formulated in a non-phytotoxic solvent mixture which included a surfactant. At the same time, plants selected from these crop and weed species and also chickweed (common chickweed, Stellaria media), kochia (Kochia scoparia), and wild oat (Avena fatua), were planted in pots containing Sunshine Redi-Earth® planting medium comprising spaghnum peat moss, vermiculite, starter nutrients and dolomitic limestone and treated with postemergence applications of test chemicals formulated in the same manner. Plants ranged in height from 2 to 18 cm (1- to 4-leaf stage) for postemergence treatments. Treated plants and controls were maintained in a greenhouse for 13 to 15 days, after which time all species were compared to controls and visually evaluated. Plant response ratings, summarized in Table C, are based on a scale of 0 to 100 where 0 is no effect and 100 is complete control. A dash (-) response means no test result.

[4] = tested on: barnyardgrass (Echinochloa crus-galli); assay: Test C preemergence; conditions: scale 0 to 100, 0 is no effect, 100 is complete control
Source text: as §2

[5] = tested on: blackgrass (Alopecurus myosuroides); assay: Test C preemergence; conditions: scale 0 to 100, 0 is no effect, 100 is complete control
Source text: as §2

corn (Zea mays) = assay: Test C preemergence; conditions: scale 0 to 100, 0 is no effect, 100 is complete control
Source text: as §2

[6] = tested on: galium (catchweed bedstraw, Galium aparine); assay: Test C preemergence; conditions: scale 0 to 100, 0 is no effect, 100 is complete control
Source text: as §2

[7] = tested on: giant foxtail (Setaria faberii); assay: Test C preemergence; conditions: scale 0 to 100, 0 is no effect, 100 is complete control
Source text: as §2

[8] = tested on: johnsongrass (Sorghum halepense); assay: Test C preemergence; conditions: scale 0 to 100, 0 is no effect, 100 is complete control
Source text: as §2

[9] = tested on: lambsquarters (Chenopodium album); assay: Test C preemergence; conditions: scale 0 to 100, 0 is no effect, 100 is complete control
Source text: as §2

[10] = tested on: large (Lg) crabgrass (Digitaria sanguinalis); assay: Test C preemergence; conditions: scale 0 to 100, 0 is no effect, 100 is complete control
Source text: as §2

[11] = tested on: morningglory (Ipomoea coccinea); assay: Test C preemergence; conditions: scale 0 to 100, 0 is no effect, 100 is complete control
Source text: as §2

[12] = tested on: oilseed rape (Brassica napus); assay: Test C preemergence; conditions: scale 0 to 100, 0 is no effect, 100 is complete control
Source text: as §2

[13] = tested on: pigweed (Amaranthus retroflexus); assay: Test C preemergence; conditions: scale 0 to 100, 0 is no effect, 100 is complete control
Source text: as §2

[14] = tested on: ragweed (common ragweed, Ambrosia elatior); assay: Test C preemergence; conditions: scale 0 to 100, 0 is no effect, 100 is complete control
Source text: as §2

soybean (Glycine max) = assay: Test C preemergence; conditions: scale 0 to 100, 0 is no effect, 100 is complete control
Source text: as §2

[15] = tested on: velvetleaf (Abutilon theophrasti); assay: Test C preemergence; conditions: scale 0 to 100, 0 is no effect, 100 is complete control
Source text: as §2

[16] = tested on: waterhemp (common waterhemp, Amaranthus rudis); assay: Test C preemergence; conditions: scale 0 to 100, 0 is no effect, 100 is complete control
Source text: as §2

[17] = tested on: winter wheat (Triticum aestivum); assay: Test C preemergence; conditions: scale 0 to 100, 0 is no effect, 100 is complete control
Source text: as §2

[18] = tested on: yellow nutsedge (Cyperus esculentus); assay: Test C preemergence; conditions: scale 0 to 100, 0 is no effect, 100 is complete control
Source text: as §2

O=c1cccc(Oc2ncc(Cl)cn2)n1-c1ncc(Cl)cn1 [Compound 6]
Plant response rating (0 to 100 scale, 0 no effect, 100 complete control), Ragweed ([1]; 31 g ai/ha): 30
Plant response rating (0 to 100 scale, 0 no effect, 100 complete control), Ragweed ([1]; 125 g ai/ha): 50
Plant response rating (0 to 100 scale, 0 no effect, 100 complete control), Wheat ([2]; 31 g ai/ha): 0
Plant response rating (0 to 100 scale, 0 no effect, 100 complete control), Wheat ([2]; 125 g ai/ha): 0
Plant response rating, Ryegrass, Italian ([3]; 16 g ai/ha): 0
Plant response rating, Ryegrass, Italian ([3]; 31 g ai/ha): 5
Plant response rating, Ryegrass, Italian ([3]; 62 g ai/ha): 5
Plant response rating, Ryegrass, Italian ([3]; 125 g ai/ha): 5
Plant response rating, Barnyardgrass ([4]; 16 g ai/ha): 0
Plant response rating, Barnyardgrass ([4]; 31 g ai/ha): 5
Plant response rating, Barnyardgrass ([4]; 62 g ai/ha): 10
Plant response rating, Barnyardgrass ([4]; 125 g ai/ha): 40
Plant response rating, Blackgrass ([5]; 16 g ai/ha): 0
Plant response rating, Blackgrass ([5]; 31 g ai/ha): 0
Plant response rating, Blackgrass ([5]; 62 g ai/ha): 5
Plant response rating, Blackgrass ([5]; 125 g ai/ha): 5
Plant response rating, Corn (corn (Zea mays); 16 g ai/ha): 0
Plant response rating, Corn (corn (Zea mays); 31 g ai/ha): 5
Plant response rating, Corn (corn (Zea mays); 62 g ai/ha): 0
Plant response rating, Corn (corn (Zea mays); 125 g ai/ha): 5
Plant response rating, Galium ([6]; 16 g ai/ha): 80
Plant response rating, Galium ([6]; 31 g ai/ha): 90
Plant response rating, Galium ([6]; 62 g ai/ha): 90
Plant response rating, Galium ([6]; 125 g ai/ha): 90
Plant response rating, Foxtail, Giant ([7]; 16 g ai/ha): 0
Plant response rating, Foxtail, Giant ([7]; 31 g ai/ha): 5
Plant response rating, Foxtail, Giant ([7]; 62 g ai/ha): 70
Plant response rating, Foxtail, Giant ([7]; 125 g ai/ha): 100
Plant response rating, Johnsongrass ([8]; 16 g ai/ha): 0
Plant response rating, Johnsongrass ([8]; 31 g ai/ha): 0
Plant response rating, Johnsongrass ([8]; 62 g ai/ha): 5
Plant response rating, Johnsongrass ([8]; 125 g ai/ha): 10
Plant response rating, Lambsquarters ([9]; 16 g ai/ha): 40
Plant response rating, Lambsquarters ([9]; 31 g ai/ha): 30
Plant response rating, Lambsquarters ([9]; 62 g ai/ha): 65
Plant response rating, Lambsquarters ([9]; 125 g ai/ha): 85
Plant response rating, Crabgrass, Large ([10]; 16 g ai/ha): 5
Plant response rating, Crabgrass, Large ([10]; 31 g ai/ha): 50
Plant response rating, Crabgrass, Large ([10]; 62 g ai/ha): 90
Plant response rating, Crabgrass, Large ([10]; 125 g ai/ha): 100
Plant response rating, Morningglory ([11]; 16 g ai/ha): 5
Plant response rating, Morningglory ([11]; 31 g ai/ha): 5
Plant response rating, Morningglory ([11]; 62 g ai/ha): 20
Plant response rating, Morningglory ([11]; 125 g ai/ha): 55
Plant response rating, Oilseed Rape ([12]; 16 g ai/ha): 30
Plant response rating, Oilseed Rape ([12]; 31 g ai/ha): 90
Plant response rating, Oilseed Rape ([12]; 62 g ai/ha): 98
Plant response rating, Oilseed Rape ([12]; 125 g ai/ha): 98
Plant response rating, Pigweed ([13]; 16 g ai/ha): 55
Plant response rating, Pigweed ([13]; 31 g ai/ha): 75
Plant response rating, Pigweed ([13]; 62 g ai/ha): 90
Plant response rating, Pigweed ([13]; 125 g ai/ha): 100
Plant response rating, Ragweed ([14]; 16 g ai/ha): 25
Plant response rating, Ragweed ([14]; 31 g ai/ha): 25
Plant response rating, Ragweed ([14]; 62 g ai/ha): 70
Plant response rating, Ragweed ([14]; 125 g ai/ha): 85
Plant response rating, Soybean (soybean (Glycine max); 16 g ai/ha): 10
Plant response rating, Soybean (soybean (Glycine max); 31 g ai/ha): 20
Plant response rating, Soybean (soybean (Glycine max); 125 g ai/ha): 75
Plant response rating, Velvetleaf ([15]; 16 g ai/ha): 10
Plant response rating, Velvetleaf ([15]; 31 g ai/ha): 25
Plant response rating, Velvetleaf ([15]; 62 g ai/ha): 40
Plant response rating, Velvetleaf ([15]; 125 g ai/ha): 80
Plant response rating, Waterhemp ([16]; 16 g ai/ha): 75
Plant response rating, Waterhemp ([16]; 31 g ai/ha): 90
Plant response rating, Waterhemp ([16]; 62 g ai/ha): 100
Plant response rating, Waterhemp ([16]; 125 g ai/ha): 100
Plant response rating, Wheat ([17]; 16 g ai/ha): 0
Plant response rating, Wheat ([17]; 31 g ai/ha): 0
Plant response rating, Wheat ([17]; 62 g ai/ha): 5
Plant response rating, Wheat ([17]; 125 g ai/ha): 0
Plant response rating, Nutsedge, Yellow ([18]; 16 g ai/ha): 0
Plant response rating, Nutsedge, Yellow ([18]; 31 g ai/ha): 0
Plant response rating, Nutsedge, Yellow ([18]; 62 g ai/ha): 0
Plant response rating, Nutsedge, Yellow ([18]; 125 g ai/ha): 5

Reference: US9963442B2, “Pyridones as herbicides” (E I DU PONT DE NEMOURS AND COMPANY, priority 2014, dated 2018)
